Results published in US20130071547A1, “LOW CALORIC FAT REPLACERS” (NESTEC S.A., priority 2009, published 2013).
“Also recorded” adds a separate entry of the source. Read-outs that look alike come from different tables or passages of the source.

Key:
subjects [1] = test: 2-Alternative forced choice test of the fattiness of 12-Methyltridecanal; type: in vivo, human
Procedure: 12-Methyltridecanal was dissolved in 0.5% ethanol in water. Control samples were 0.5% ethanol in water. Three concentrations were tested. For each concentration thirty nine subjects wearing nose clips were presented with one cup containing the compound and one control cup in a random order. The subjects were asked to identify which sample is fattier. The significance level is shown with a solid line.
2-Alternative forced choice tests were used to test the fattiness of 12-Methyltridecanal. Thirty nine subjects were presented with two cups, one with a solution containing 12-Methyltridecanal and the other vehicle alone. The subjects were wearing nose clips, and were asked which sample is fattier. A significant number of participants found the sample containing the highest concentration of 12-Methyltridecanal fattier (28 out of 39 subjects, p<0.01) (FIG. 5).

GPR40 [2] = biological target: T1, GPR40 (Homo sapiens, UniProt O14842); test: Calcium response of Chem-1 cells stably expressing GPR40 (calcium sensitive dye, Flex station); type: cell-based
T1 construct: expressed in transfected cells; host or cells: Chem-1 (Chem1) cells stably expressing GPR40
T1 sequence (O14842 whole entry, species assumed): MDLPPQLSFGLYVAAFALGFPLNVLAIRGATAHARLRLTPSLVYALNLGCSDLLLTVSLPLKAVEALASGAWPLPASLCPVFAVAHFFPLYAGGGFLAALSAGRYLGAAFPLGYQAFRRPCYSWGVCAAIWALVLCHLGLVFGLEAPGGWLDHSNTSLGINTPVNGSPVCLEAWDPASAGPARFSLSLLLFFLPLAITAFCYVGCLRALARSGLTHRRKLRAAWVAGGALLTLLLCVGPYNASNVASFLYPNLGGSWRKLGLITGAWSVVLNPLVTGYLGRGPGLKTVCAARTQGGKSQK
Description: The calcium response of Chem-1 cells stably expressing GPR40 to increasing concentration of 12-Methyltridecanal is shown.
To determine if 12-Methyltridecanal is an agonist of GPR40, Chem1 cells stably expressing GPR40 were loaded with a calcium sensitive dye, stimulated with increasing concentrations of 12-Methyltridecanal, and their calcium response measured using a Flex station.

wild type Chem1 cells = test: Calcium response of wild type Chem1 cells (control cells); type: cell-based
subjects [3] = test: Description of the sensory attributes of GPR40 agonists by untrained subjects; type: in vivo, human; conditions: for SUMMARY of the comments (sensory attributes): eight subjects with nose clips; for sensory attributes described by most participants: 0.5% ethanol solutions, untrained subjects with nose clips; for fatty mouth sensation (overall conclusion of Example 2): conclusion from triangle and descriptive tests
Description: In a different experiment, untrained subjects were asked to describe the sensory attributes of the agonists. The majority of participants described the molecules as creamy, oily, or providing mouth and lip coating (Tables 2 and 3).
Eight subjects wearing nose clips were presented with 0.5% ethanol solutions containing agonists of GPR40 and asked to describe them.

GPR40 [4] = biological target: T1, GPR40; conditions: cited from earlier work
subjects [5] = test: Triangle tests with GPR40 agonists (identify the odd sample); type: in vivo, human; conditions: highest concentration tested, 0.5% ethanol in water, nose clips; for participants who correctly identified the odd sample: one compound cup and two control cups; for identification of the sample with the compound as the odd sample (significance): 21 subjects
Procedure: The GPR40 agonist (Compound 5 or Compound 20) was dissolved in 0.5% ethanol in water. Control samples were 0.5% ethanol in water. Three concentrations for compound 5 and four concentrations for compound 20 were tested. For each concentration twenty one subjects wearing nose clips were presented with one cup containing the compound and two control cups in a random order. The subjects were asked to identify the odd sample. […] The significance level is shown with a dashed line. * p<0.01, ** p<0.0001
Triangle tests were used with 21 subjects to determine if solutions containing Compound 5 or Compound 20 taste different from solutions with the same vehicle but without compounds. The subjects, wearing nose clips, were presented with three samples in random order, one containing the agonist, and two control solutions, and were asked to identify the odd sample. Eighteen out of 21 participants correctly identified the highest concentration of compound 5 (p<0.0001), and 13 out of 21 correctly identified the highest concentration of Compound 20 (p<0.01) (FIG. 3).

subjects [6] = test: Descriptive information on taste, texture and after taste of compound 20; type: in vivo, human; conditions: 51.2 μM in 0.5% ethanol, nose clips; for Taste (descriptor: number of subjects): wrapped cell: 'Slightly savoury: 1'; for Texture (descriptor: number of subjects): wrapped cells: 'Slightly viscous: 2', 'Slightly coats the mouth: 2'
Procedure: Six subjects wearing nose clips were presented with 0.5% ethanol in water (warm up sample) or 51.2 μM compound 20 in 0.5% ethanol (reference sample). Participants were asked to describe, avoiding hedonic terms, the taste, texture and aftertaste of the reference sample. Five out of 6 subjects found texture attributes compatible with the texture of fat.

subjects [7] = test: 2-Alternative forced choice test, which solution tastes fattier (Medica 16, rosiglitazone); type: in vivo, human; conditions: agonist solution vs water, 40 subjects, p<0.05
Procedure: A correct choice is defined as choosing as fattier the sample containing the test ingredients. Medica 16 and rosiglitazone were assessed independently at three concentration, 10 μM, 50 μM and 100 μM.
Forty subjects were given two solutions one containing the agonist and the other water, and asked which one tastes fattier.

## CC(C)CCCCCCCCCCC=O [12-Methyltridecanal]
Subjects [1]; 10 μM (lowest concentration), 39 subjects, 0.5% ethanol in water, nose clips
  fatty taste effect versus control: no significant effect
Subjects [1]; 50 μM, 39 subjects, trend, p<0.05, not significant when taking into consideration multiple testing
  subjects choosing the sample with the compound as fattier than control (correct choice): 26
Subjects [1]; 100 μM (highest concentration), 39 subjects, 0.5% ethanol in water, nose clips, p<0.0087 (p<0.01)
  subjects choosing the sample with the compound as fattier than control: 28 subjects
Subjects [1]; conclusion from 2-Alternative forced choice test
  fatty mouth sensation (overall conclusion of Example 2): impart a fatty mouth sensation
GPR40 [2]
  calcium response to increasing concentrations: clear dose-dependant response
Wild type Chem1 cells
  calcium response to increasing concentrations: do not respond; also recorded: did not respond

## CC#CC(CC(=O)O)c1ccc(OCc2cc(-c3ccccc3)oc2C)cc1 (stereo not drawn) [Compound 5]
Subjects [3]; 40 μM in 0.5% ethanol, agreement over most participants on mouth coating, creaminess
  SUMMARY of the comments (sensory attributes): Bitter; also recorded: Astringent/tingling; also recorded: Slight mouth coating, Creaminess; also recorded: Persistent
Subjects [3]
  sensory attributes described by most participants: agreement from most participants on the creaminess, mouth and lip coating
  fatty mouth sensation (overall conclusion of Example 2): impart a fatty mouth sensation
GPR40 [4]; as described in patent WO2005/086661
  GPR40 agonist activity: GPR40 agonist activity was demonstrated
Subjects [5]
  participants who correctly identified the odd sample: Eighteen
  identification of the sample with the compound as the odd sample (significance): a significant number of subjects were able to identify the sample with the compound as the odd sample

## Cc1ccccc1C#Cc1ccc(CCC(=O)O)cc1 [Compound 20]
Subjects [6]
  subjects who found texture attributes compatible with the texture of fat: Five
Subjects [6]; six subjects, wrapped cell: 'Slightly burning, hot, at the side of the tongue after spitting out.'
  Others (comments): Slightly burning,
Subjects [6]; six subjects
  Taste (descriptor: number of subjects): Slightly
  Texture (descriptor: number of subjects): Slightly
Subjects [6]; six subjects, no taste noted
  Taste (descriptor: number of subjects): None: 5
Subjects [6]; six subjects, wrapped cells: 'Astringent at the back of the throat', 'Bitter - Very slightly'
  After taste (descriptor: number of subjects): None: 3
Subjects [6]; six subjects, a bit oily texture
  Texture (descriptor: number of subjects): A bit oily: 1
Subjects [6]; six subjects, greasy texture
  Texture (descriptor: number of subjects): Greasy: 2
Subjects [6]; six subjects, no texture noted
  Texture (descriptor: number of subjects): None: 1
Subjects [6]; six subjects, slightly coats the mouth
  Texture (descriptor: number of subjects): Slightly coats
Subjects [6]; six subjects, waxy texture
  Texture (descriptor: number of subjects): Waxy: 1
Subjects [3]; 51.2 μM in 0.5% ethanol, agreement over most participants on lip coating, creamy
  SUMMARY of the comments (sensory attributes): Coating the lips, creamy; also recorded: Slightly bitter
Subjects [3]
  sensory attributes described by most participants: agreement from most participants on the creaminess, mouth and lip coating
  fatty mouth sensation (overall conclusion of Example 2): impart a fatty mouth sensation
GPR40 [4]; as described in Christiansen et al, Journal of Medicinal Chemistry, 2008, 51, 7061-7064
  GPR40 agonist activity: GPR40 agonist activity was demonstrated
Subjects [5]
  participants who correctly identified the odd sample: 13 out of 21
  identification of the sample with the compound as the odd sample (significance): a significant number of subjects were able to identify the sample with the compound as the odd sample

## CCCCC/C=C\C/C=C\CCCCCCCC(=O)O [Linoleic acid]
Subjects [3]; 450 μM in 0.5% ethanol, r7 continues in r8 ('texture.')
  SUMMARY of the comments (sensory attributes): Astringent. Pungent; also recorded: Some mentions on creamy, viscous

## CC(C)(CCCCCCCCCCC(C)(C)CC(=O)O)CC(=O)O [Medica 16]
Subjects [7]; 50 μM
  sample with agonist chosen as tasting fattier than control: significantly chosen as fattier than control solution; also recorded: more subjects found the solution with agonists to taste fattier
Subjects [7]; 100 μM
  sample with agonist chosen as tasting fattier than control: significantly chosen as fattier than control solution; also recorded: more subjects found the solution with agonists to taste fattier

## CN(CCOc1ccc(CC2SC(=O)NC2=O)cc1)c1ccccn1 (stereo not drawn) [Roziglitazone]
Subjects [7]; 50 μM
  sample with agonist chosen as tasting fattier than control: more subjects found the solution with agonists to taste fattier
Subjects [7]; 50 μM, listed as rosiglitazone
  sample with agonist chosen as tasting fattier than control: significantly chosen as fattier than control solution
Subjects [7]; 100 μM
  sample with agonist chosen as tasting fattier than control: more subjects found the solution with agonists to taste fattier
Subjects [7]; 100 μM, listed as rosiglitazone
  sample with agonist chosen as tasting fattier than control: significantly chosen as fattier than control solution
